Assay results from patent publication US20070265273A1, “Pyrimidin-2-Amine Derivatives and Their Use as A2b Adenosine Receptor Antagonists” (priority 2003, published 2007).
Like-named read-outs stand apart in the source and are kept apart here.

Key:
[1] = biological target: T1, human recombinant A1 receptors (Homo sapiens, UniProt P30542); experiment: Adenosine 1 receptor subtype competition radioligand binding assay; conditions: 1 h, [3H]-DPCPX, CHO-K1 membranes, read-out: Binding human A1, % @ 1 μM (column headed Ki (nM))
T1 construct: host or cells: CHO-K1
T1 sequence (P30542 1-326): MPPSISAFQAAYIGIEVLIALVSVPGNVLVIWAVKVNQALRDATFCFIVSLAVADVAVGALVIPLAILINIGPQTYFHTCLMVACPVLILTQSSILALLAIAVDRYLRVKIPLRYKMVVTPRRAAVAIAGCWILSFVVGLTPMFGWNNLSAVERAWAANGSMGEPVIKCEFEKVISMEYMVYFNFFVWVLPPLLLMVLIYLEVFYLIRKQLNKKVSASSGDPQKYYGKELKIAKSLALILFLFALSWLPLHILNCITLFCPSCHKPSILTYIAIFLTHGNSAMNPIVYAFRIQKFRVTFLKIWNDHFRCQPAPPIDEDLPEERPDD
Procedure: Adenosine I Receptor Subtype Competition Radioligand Binding Assay
CHO-K1 cells expressing human recombinant A1 receptors were purchased from Euroscreen (Belgium). For membrane preparation, cells were collected from tissue culture plates using a cell scraper, resuspended in 10-15 ml of homogenization buffer (Tris-HCl 15 mM pH 7.5, MgCl2 2 mM, EDTA 0.3 mM, EGTA 1 mM), homogenized, and centrifuged at 40.000 g for 25 minutes. The resulting pellet was resuspended in the same buffer and centrifuged again for 25 minutes. Finally, the pellet was resuspended in 500 μl of storage buffer (Tris-HCl 7.5 mM pH 7.5, MgCl2 12.5 mM, EDTA 0.3 mM, EGTA 1 mM, sucrose 250 mM) where the total protein content was determined.
Competition assays were carried out incubating 15 μg of A1-membrane preparations, 2 nM [^3H]-DPCPX (Amersham) as radioligand and 10 μM of unlabeled DPCPX ligand, in a total volume of 100 μl of buffer (Hepes 20 mM pH 7.4, NaCl 100 mM, MgCl2 10 mM, 2 U/ml adenosin deaminase) for 1 h at 25° C. Samples were filtered and washed 4 times with 250 μl of buffer (Hepes 20 mM pH 7.4, NaCl 100 mM, MgCl2 10 mM) using plates (Millipore MAFCN0B50) preincubated for 15 min. in 250 μl of the same buffer. Samples were counted using 30 μl of LSC Universol (ICN) in a Wallac 1450 Microbeta counter. Non specific binding was tested using 10 μM R-PIA.

[2] = biological target: T2, human recombinant A2A receptor (Homo sapiens, UniProt P29274); experiment: Adenosine 2A receptor subtype competition radioligand binding assay; conditions: [3H]-ZM241385, Hela cell membranes
T2 construct: expressed in transfected cells; host or cells: HeLa (stably transfected)
T2 sequence (P29274 whole entry): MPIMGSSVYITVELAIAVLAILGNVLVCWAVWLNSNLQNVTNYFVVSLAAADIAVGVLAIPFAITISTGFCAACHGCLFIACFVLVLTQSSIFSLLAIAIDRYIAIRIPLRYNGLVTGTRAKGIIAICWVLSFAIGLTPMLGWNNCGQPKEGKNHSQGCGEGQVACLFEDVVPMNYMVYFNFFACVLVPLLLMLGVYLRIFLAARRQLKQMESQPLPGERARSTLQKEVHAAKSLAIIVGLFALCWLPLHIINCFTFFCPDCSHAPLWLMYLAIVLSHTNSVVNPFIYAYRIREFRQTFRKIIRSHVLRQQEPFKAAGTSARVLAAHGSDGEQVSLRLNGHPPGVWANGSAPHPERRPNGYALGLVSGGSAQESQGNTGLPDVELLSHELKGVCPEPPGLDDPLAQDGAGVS
Procedure: Adenosine 2A Receptor Subtype Competition Radioligand Binding Assay
(§1) Membranes were prepared from Hela cells stably transfected with the human recombinant A2A receptor. For membrane preparation, cells were collected from tissue culture plates using a cell scraper, resuspended in 10-15 ml homogenization buffer (Tris-HCl 5 mM, EDTA 2 mM), homogenized, and centrifuged at 1.000 g. for 10 min. at 4° C. The supernatant was then recovered and centrifuged at 50.000 g for 1 h. at 4° C. Finally, the pellet was resuspended in 100-500 μl storage buffer (Tris-HCl 50 mM pH 7.4) where the total protein content was determined.
Competition assays were carried out incubating 5 μg of A2A-membranes, 3 nM [^3H]-ZM241385 (Tocris) as radioligand and 50 μM of unlabeled ZM241385 ligand, in a total volume of 100 μl of buffer (TrisHCl 50 μM pH 7.4, EDTA 1 mM, MgCl2 10 mM, 2 U/ml adenosin deaminase) for 30 minutes at 25° C. Samples were then filtered and washed 4 times with 250 μl of buffer (TrisHCl 50 μM pH 7.4, EDTA 1 mM, MgCl2 10 mM) using plates (Millipore MAFCN0B50) preincubated for 15 min. in 250 μl of the same buffer. Samples were counted using 30 μl of LSC Universol (ICN) in a Wallac 1450 Microbeta counter. Non specific binding was tested using 50 μM NECA.

[3] = biological target: T3, human recombinant A3 receptor (Homo sapiens, UniProt P0DMS8); experiment: Adenosine 3 receptor subtype competition radioligand binding assay
T3 construct: expressed in transfected cells; host or cells: HeLa (stably transfected)
T3 sequence (P0DMS8 1-318): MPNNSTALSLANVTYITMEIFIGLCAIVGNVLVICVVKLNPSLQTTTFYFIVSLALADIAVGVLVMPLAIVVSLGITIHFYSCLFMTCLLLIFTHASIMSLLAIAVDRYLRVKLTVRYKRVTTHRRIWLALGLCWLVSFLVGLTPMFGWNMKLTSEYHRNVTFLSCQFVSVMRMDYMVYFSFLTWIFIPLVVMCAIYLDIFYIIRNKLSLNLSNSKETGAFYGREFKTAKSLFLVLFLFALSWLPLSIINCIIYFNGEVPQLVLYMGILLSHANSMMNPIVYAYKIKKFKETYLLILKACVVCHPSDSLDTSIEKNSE
Procedure: Adenosine 3 Receptor Subtype Competition Radioligand Binding Assay
as §1, with “A3” for “A2A”, “ml of” for “ml”, “μl of” for “μl”
Competition assays were carried out incubating 100 μg of A3-membranes, 30 nM [^3H]-NECA (Amersham) as radioligand and 50 μM of unlabeled NECA ligand, in a total volume of 100 μl of buffer (Tris-HCl 50 mM pH 7.4, MgCl2 5 mM, EDTA 1 mM, 2 U/ml adenosine deaminase) for 3 hours at 25° C. Samples were filtered 4 times with 250 μl of buffer (Tris-HCl 50 mM pH 7.4) using plates (Millipore MAFBN0B50) preincubated for 15 min. in 250 μl of the same buffer. Samples were counted using 30 μl of LSC Universol (ICN) in a Wallac 1450 Microbeta counter. Non specific binding was tested using 100 μM of R-PIA.

[4] = [3H]-NECA, Hela cell membranes, read-out: Binding human A3 Ki

In the case of c1cncc(Nc2ncc(-c3ccncn3)c(-c3ccco3)n2)c1 [Example 1, 4′-(2-Furyl)-N-pyridin-3-yl-4,5′-bipyrimidin-2′-amine], the inhibition at 1 µM [1] is reported as 14%, the Ki [2] is reported as 2.54 µM and the Ki [3, 4] is reported as 1.1 µM.

For COc1ccc(Nc2ncc(-c3ccncn3)c(-c3ccco3)n2)cn1 [Example 2, 4′-(2-Furyl)-N-(6-methoxypyridin-3-yl)-4,5′-bipyrimidin-2′-amine], the inhibition at 1 µM [1] was 5%, the “Binding human A2A, % @ 1 μM (column headed Ki (nM))” value (“Binding human A2A, % @ 1 μM” for short) [2] was 14% @ 1 μM and the Ki [3] was 4.32 µM.

For Fc1ccc(Nc2ncc(-c3ccncn3)c(-c3ccco3)n2)cn1 [Example 4, N-(6-Fluoropyridin-3-yl)-4′-(2-furyl)-4,5′-bipyrimidin-2′-amine], the inhibition at 1 µM [1] was 30%, the “Binding human A2A, % @ 1 μM” value [2] was 21% @ 1 μM and the Ki [3, 4] was 1.69 µM.

Work on c1cncc(Nc2ncc(-c3ccncn3)c(-c3cccs3)n2)c1 [Example 6, N-Pyridin-3-yl-4′-thien-2-yl-4,5′-bipyrimidin-2′-amine] yielded an inhibition at 1 µM [1] of 31%, a Ki [2] of 0.62 µM and a Ki [3, 4] of 0.31 µM.

In the case of c1cncc(Nc2ncc(-c3ccnnc3)c(-c3ccco3)n2)c1 [Example 11, 4-(2-Furyl)-5-pyridazin-4-yl-N-pyridin-3-ylpyrimidin-2-amine], the inhibition at 1 µM [1] is reported as 23%, the “Binding human A2A, % @ 1 μM” value [2] is reported as 17% @ 1 μM and the Ki [3, 4] is reported as 0.407 µM.

With [O-][n+]1cccc(Nc2ncc(-c3ccncn3)c(-c3ccco3)n2)c1 [Example 12, 4′-(2-Furyl)-N-(1-oxidopyridin-3-yl)-4,5′-bipyrimidin-2′-amine] the inhibition at 1 µM [1] was 4%, the “Binding human A2A, % @ 1 μM” value [2] was 7% @ 1 μM and the Ki [3, 4] was 0.846 µM.

With c1coc(-c2nc(Nc3cncnc3)ncc2-c2ccncn2)c1 [Example 13, 4′-(2-Furyl)-N-pyrimidin-5-yl-4,5′-bipyrimidin-2′-amine] the inhibition at 1 µM [1] was 3%, the “Binding human A2A, % @ 1 μM” value [2] was 15% @ 1 μM and the Ki [3, 4] was 1.44 µM.

With O=c1ccc(Nc2ncc(-c3ccncn3)c(-c3ccco3)n2)c[nH]1 [Example 21, 5-{[4′-(2-Furyl)-4,5′-bipyrimidin-2′-yl]amino}pyridin-2(1H)-one] the inhibition at 1 µM [1] was 0%, the “Binding human A2A, % @ 1 μM” value [2] was 0% @ 1 μM and the Ki [3, 4] was 2.79 µM.
